The target of assay [1] is T1, Electric eel AChE (Type-VI-S, EC 3.1.1.7) (Electrophorus electricus, UniProt O42275).
T1 construct: commercial native enzyme, Sigma Type VI-S
In words: Ellman assay, Lineweaver-Burk plot, EZ-Fit. It counts as biochemical. As to conditions: control without extract, 0.05 M Tris-HCl pH 8.0, RT; unreliable (printed unit nM implausible beside mM substrate). An excerpt:
Ellman assay, Lineweaver-Burk plot, EZ-Fit on Electric eel AChE (Type-VI-S, EC 3.1.1.7)
In general terms: DTNB colorimetry detects thiols as they appear.

Assay [2] concerns the target T2, horse serum BuChE (EC 3.1.1.8) (Equus caballus, UniProt P81908).
T2 construct: gene BCHE; commercial native enzyme from horse serum, Sigma
Description: Ellman assay, Lineweaver-Burk plot, EZ-Fit. It counts as biochemical. As to conditions: control without extract, 0.05 M Tris-HCl pH 8.0, RT; unreliable (printed unit nM implausible beside mM substrate). The source says: Ellman assay, Lineweaver-Burk plot, EZ-Fit on horse serum BuChE (EC 3.1.1.8)

T2 sequence (P81908 whole entry): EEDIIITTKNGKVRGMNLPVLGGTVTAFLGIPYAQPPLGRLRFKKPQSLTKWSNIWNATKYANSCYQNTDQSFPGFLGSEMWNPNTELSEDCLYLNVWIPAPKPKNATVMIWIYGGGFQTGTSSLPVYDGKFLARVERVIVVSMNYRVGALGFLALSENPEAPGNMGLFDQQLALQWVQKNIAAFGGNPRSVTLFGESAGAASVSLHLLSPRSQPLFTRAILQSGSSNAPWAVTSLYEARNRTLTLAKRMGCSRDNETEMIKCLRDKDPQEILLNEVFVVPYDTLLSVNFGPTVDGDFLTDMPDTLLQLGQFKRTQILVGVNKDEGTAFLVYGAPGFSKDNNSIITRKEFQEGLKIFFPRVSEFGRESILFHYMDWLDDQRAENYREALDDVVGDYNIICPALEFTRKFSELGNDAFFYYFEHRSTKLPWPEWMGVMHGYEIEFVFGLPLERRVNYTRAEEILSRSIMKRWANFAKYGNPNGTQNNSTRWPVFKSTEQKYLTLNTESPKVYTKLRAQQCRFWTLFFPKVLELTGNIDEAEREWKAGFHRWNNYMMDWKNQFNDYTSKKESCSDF
T1 sequence (O42275 24-633): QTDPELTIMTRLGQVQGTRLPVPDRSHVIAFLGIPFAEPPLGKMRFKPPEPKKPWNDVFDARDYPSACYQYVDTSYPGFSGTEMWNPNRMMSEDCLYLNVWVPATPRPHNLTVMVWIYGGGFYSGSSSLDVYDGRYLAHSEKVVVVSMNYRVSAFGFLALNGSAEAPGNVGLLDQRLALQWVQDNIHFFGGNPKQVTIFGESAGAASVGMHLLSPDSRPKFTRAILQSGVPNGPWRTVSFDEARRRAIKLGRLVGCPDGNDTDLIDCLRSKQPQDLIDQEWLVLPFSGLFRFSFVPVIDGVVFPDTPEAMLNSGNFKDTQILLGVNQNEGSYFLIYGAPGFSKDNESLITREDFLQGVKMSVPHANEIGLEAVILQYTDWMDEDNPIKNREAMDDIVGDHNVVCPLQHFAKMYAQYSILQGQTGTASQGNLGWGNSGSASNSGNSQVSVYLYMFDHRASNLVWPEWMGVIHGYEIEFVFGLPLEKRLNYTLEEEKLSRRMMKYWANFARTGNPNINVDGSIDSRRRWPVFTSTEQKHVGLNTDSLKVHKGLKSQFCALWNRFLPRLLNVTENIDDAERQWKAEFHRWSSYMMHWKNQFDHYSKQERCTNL

In the case of `CC(=O)SCC[N+](C)(C)C` [acetylthiocholine iodide], the “AChE / Control” value in assay [1] was found to be 0.8774 ± 0.41 nM.

With `CCCC(=O)SCC[N+](C)(C)C` [butyrylthiocholine iodide], the “BuChE / Control” value in assay [2] came out at 3.12 ± 0.87 nM.
